Patent US12077503B2, “Substituted cyclic amides and their use as herbicides” (FMC CORPORATION, priority 2015, dated 2024)

Legend:
Format in all cases: in vivo
[1] = tested on: barnyardgrass (Echinochloa crus-galli); assay: Test A preemergence; details: Echinochloa crus-galli, pre-emergence, 240 h; for pest or weed control at 125 g/ha: 125 g ai/ha, Preemergence, visual injury rating after approximately 10 d, read-out: Barnyardgrass plant response rating (0 to 100 scale, 0 is no effect, 100 is complete control); for pest or weed control at 500 g/ha: 500 g ai/ha, preemergence, visual injury rating about 10 d after treatment, 0 to 100 scale (0 no effect, 100 complete control), read-out: Barnyardgrass plant response rating
In short: (§1)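 Greenhouse, ~10 d after spray; visual injury vs untreated controls, 0 = no effect, 100 = complete control. Preemergence: directed soil spray over planted seeds. Postemergence: plants 2–10 cm, 1–2 leaf stage. Loam/sand blend. Compound in non-phytotoxic solvent with surfactant.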

[2] = tested on: ryegrass, Italian (Italian ryegrass, Lolium multiflorum); assay: Test A preemergence; details: Lolium multiflorum, pre-emergence, 240 h; for pest or weed control at 125 g/ha: 125 g ai/ha, Preemergence, visual injury rating after approximately 10 d, read-out: Ryegrass, Italian plant response rating (0 to 100 scale, 0 is no effect, 100 is complete control); for pest or weed control at 500 g/ha: 500 g ai/ha, preemergence, visual injury rating about 10 d after treatment, 0 to 100 scale (0 no effect, 100 complete control), read-out: Ryegrass, Italian plant response rating
In short: as §1

[3] = tested on: giant foxtail (Setaria faberii); assay: Test A preemergence; details: Setaria faberi, pre-emergence, 240 h; for pest or weed control at 125 g/ha: 125 g ai/ha, Preemergence, visual injury rating after approximately 10 d, read-out: Foxtail, Giant plant response rating (0 to 100 scale, 0 is no effect, 100 is complete control); for pest or weed control at 500 g/ha: 500 g ai/ha, preemergence, visual injury rating about 10 d after treatment, 0 to 100 scale (0 no effect, 100 complete control), read-out: Foxtail, Giant plant response rating
In short: as §1

[4] = tested on: pigweed (Amaranthus retroflexus); assay: Test A preemergence; details: Amaranthus retroflexus, pre-emergence, 240 h; for pest or weed control at 125 g/ha: 125 g ai/ha, Preemergence, visual injury rating after approximately 10 d, read-out: Pigweed plant response rating (0 to 100 scale, 0 is no effect, 100 is complete control); for pest or weed control at 500 g/ha: 500 g ai/ha, preemergence, visual injury rating about 10 d after treatment, 0 to 100 scale (0 no effect, 100 complete control), read-out: Pigweed plant response rating
[5] = tested on: ragweed (common ragweed, Ambrosia elatior); assay: Test A preemergence; details: Ambrosia artemisiifolia, pre-emergence, 240 h; for pest or weed control at 125 g/ha: 125 g ai/ha, Preemergence, visual injury rating after approximately 10 d, read-out: Ragweed plant response rating (0 to 100 scale, 0 is no effect, 100 is complete control); for pest or weed control at 500 g/ha: 500 g ai/ha, preemergence, visual injury rating about 10 d after treatment, 0 to 100 scale (0 no effect, 100 complete control), read-out: Ragweed plant response rating
In short: as §1

Kochia (Kochia scoparia) [6] = assay: Test A preemergence; details: Bassia scoparia, pre-emergence, 240 h; for pest or weed control at 125 g/ha: 125 g ai/ha, Preemergence, visual injury rating after approximately 10 d, read-out: Kochia plant response rating (0 to 100 scale, 0 is no effect, 100 is complete control); for pest or weed control at 500 g/ha: 500 g ai/ha, preemergence, visual injury rating about 10 d after treatment, 0 to 100 scale (0 no effect, 100 complete control), read-out: Kochia plant response rating
In short: as §1

[7] = tested on: blackgrass (Alopecurus myosuroides); assay: Test A postemergence; details: Alopecurus myosuroides, post-emergence, 240 h, 125 g ai/ha, Postemergence; visual injury after approximately 10 d; 0 to 100 scale where 0 is no effect and 100 is complete control; read-out: Plant response rating, Blackgrass
In short: as §1

[8] = tested on: ryegrass, Italian (Italian ryegrass, Lolium multiflorum); assay: Test A postemergence; details: Lolium multiflorum, post-emergence, 240 h, 125 g ai/ha, Postemergence; visual injury after approximately 10 d; 0 to 100 scale where 0 is no effect and 100 is complete control; read-out: Plant response rating, Ryegrass, Italian
In short: as §1

[9] = tested on: giant foxtail (Setaria faberii); assay: Test A postemergence; details: Setaria faberi, post-emergence, 240 h, 125 g ai/ha, Postemergence; visual injury after approximately 10 d; 0 to 100 scale where 0 is no effect and 100 is complete control; read-out: Plant response rating, Foxtail, Giant
In short: as §1

corn (Zea mays) = assay: Test A postemergence; details: Zea mays, post-emergence, 240 h, 125 g ai/ha, Postemergence; visual injury after approximately 10 d; 0 to 100 scale where 0 is no effect and 100 is complete control
In short: as §1

[10] = tested on: pigweed (Amaranthus retroflexus); assay: Test A postemergence; details: Amaranthus retroflexus, post-emergence, 240 h, 125 g ai/ha, Postemergence; visual injury after approximately 10 d; 0 to 100 scale where 0 is no effect and 100 is complete control; read-out: Plant response rating, Pigweed
In short: as §1

[11] = tested on: ragweed (common ragweed, Ambrosia elatior); assay: Test A postemergence; details: Ambrosia artemisiifolia, post-emergence, 240 h, 125 g ai/ha, Postemergence; visual injury after approximately 10 d; 0 to 100 scale where 0 is no effect and 100 is complete control; read-out: Plant response rating, Ragweed
In short: as §1

[12] = tested on: wheat (Triticum aestivum); assay: Test A postemergence; details: Triticum aestivum, post-emergence, 240 h, 125 g ai/ha, Postemergence; visual injury after approximately 10 d; 0 to 100 scale where 0 is no effect and 100 is complete control; read-out: Plant response rating, Wheat
In short: as §1

Kochia (Kochia scoparia) [13] = assay: Test A postemergence; details: Bassia scoparia, post-emergence, 240 h, 125 g ai/ha, Postemergence; visual injury after approximately 10 d; 0 to 100 scale where 0 is no effect and 100 is complete control; read-out: Plant response rating, Kochia
In short: as §1

[14] = tested on: Galium (catchweed bedstraw, Galium aparine); assay: Test A postemergence; details: Galium, post-emergence, 240 h, 125 g ai/ha, Postemergence; visual injury after approximately 10 d; 0 to 100 scale where 0 is no effect and 100 is complete control; read-out: Plant response rating, Galium
In short: as §1

[15] = tested on: barnyardgrass (Echinochloa crus-galli); assay: Test B flooded paddy test; details: Echinochloa crus-galli, Flood, 250 g ai/ha; scale of 0 to 100 where 0 is no effect and 100 is complete control; read-out: Barnyardgrass plant response rating
In short: (§2)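 Greenhouse paddy pots with 2-leaf stage plants received compound by direct addition to floodwater 3 cm deep, kept at that level. Scored visually at 13–15 d versus controls (0 no effect; 100 complete control).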

[16] = tested on: ducksalad (Heteranthera limosa); assay: Test B flooded paddy test; details: Heteranthera limosa, Flood, 250 g ai/ha; scale of 0 to 100 where 0 is no effect and 100 is complete control; read-out: Ducksalad plant response rating
In short: as §2

[17] = tested on: sedge, umbrella (small-flower umbrella sedge, Cyperus difformis); assay: Test B flooded paddy test; details: Cyperus difformis, Flood, 250 g ai/ha; scale of 0 to 100 where 0 is no effect and 100 is complete control; read-out: Sedge, Umbrella plant response rating
In short: as §2

rice (Oryra sativa) = assay: Test B flooded paddy test; details: Oryza sativa, Flood, 250 g ai/ha; scale of 0 to 100 where 0 is no effect and 100 is complete control; read-out: Rice plant response rating
In short: as §2

SMILES | pest or weed control at 125 g/ha [1] [%] | pest or weed control at 500 g/ha [1] [%] | pest or weed control at 125 g/ha [2] [%] | pest or weed control at 500 g/ha [2] [%] | pest or weed control at 125 g/ha [3] [%] | pest or weed control at 500 g/ha [3] [%] | pest or weed control at 125 g/ha [4] [%] | pest or weed control at 500 g/ha [4] [%] | pest or weed control at 500 g/ha [5] [%] | pest or weed control at 125 g/ha (Kochia (Kochia scoparia) [6]) [%] | pest or weed control at 500 g/ha (Kochia (Kochia scoparia) [6]) [%] | pest or weed control at 125 g/ha [7] [%] | pest or weed control at 125 g/ha [8] [%] | pest or weed control at 125 g/ha [9] [%] | Corn plant response rating (crop injury, 0 = no effect, 100 = complete kill) at 125 g/ha (corn (Zea mays)) [%] | pest or weed control at 125 g/ha [10] [%] | pest or weed control at 125 g/ha [11] [%] | plant injury at 125 g/ha [12] [%] | pest or weed control at 125 g/ha (Kochia (Kochia scoparia) [13]) [%] | pest or weed control at 125 g/ha [14] [%] | also measured
Cc1c(F)cccc1NC(=O)[C@H]1C(=O)N(C)C[C@@H]1c1cc(F)cc(Cl)c1 [Compound 978] | 90 | 90 | 60 | 90 | 90 | 90 | 0 | 50 | 90 | 40 | 90 | 60 | 50 | 90 | 60 | 0 | 0 | 70 | 0 | 50 | pest or weed control at 125 g/ha [5]: 90%; pest or weed control at 250 g/ha [15]: 65%; pest or weed control at 250 g/ha [16]: 100%; pest or weed control at 250 g/ha [17]: 0%; pest or weed control at 250 g/ha (rice (Oryra sativa)): 30%
COc1cc(OC)cc([C@H]2CN(C)C(=O)[C@@H]2C(=O)Nc2ccccc2SC)c1 [Compound 981] | 90 | 100 | 0 | 60 | 90 | 100 | 0 | 0 | 50 | 0 | 90 | 0 | 0 | 70 | 0 | 0 | 0 | 0 | 0 | 0 | pest or weed control at 125 g/ha [5]: 0%; pest or weed control at 250 g/ha [15]: 0%; pest or weed control at 250 g/ha [16]: 0%; pest or weed control at 250 g/ha [17]: 0%; pest or weed control at 250 g/ha (rice (Oryra sativa)): 0%
CSc1ccccc1NC(=O)[C@H]1C(=O)N(C)C[C@@H]1c1cc(F)cc(Cl)c1 [Compound 975] | 90 | 100 | 30 | 40 | 90 | 90 | 20 | 90 | 90 | 50 | 90 | 50 | 20 | 90 | 20 | 30 | 0 | 20 | 40 | 50 | pest or weed control at 250 g/ha [15]: 40%; pest or weed control at 250 g/ha [16]: 90%; pest or weed control at 250 g/ha [17]: 0%; pest or weed control at 250 g/ha (rice (Oryra sativa)): 0%
